From patent EP3138569B1, “COMPOSITION FOR EXTERNAL APPLICATION” (priority 2014, dated 2015)
Read-outs that look alike come from different tables or passages of the source.

Legend:
[1] = test system: Normal human epidermal fibroblasts; assay: Evaluation of fibroblast-activating effect (MTT, blue formazan); type: cell-based; details: for activity at 0.313 % / activity at 0.625 % / activity at 1.25 % / activity at 2.5 % / activity at 5 %: Homo sapiens, Fibroblast, 48 h, blue formazan relative to non-treated cells = 100, n=4, read-out: Index (%); for activity at 0.313 %: 0.313 w/v%; for activity at 0.625 %: 0.625 w/v%; for activity at 1.25 %: 1.250 w/v%; for activity at 2.5 %: 2.500 w/v%; for activity at 5 %: 5.000 w/v%; for fibroblast-activating effect: Student's t-test
Description: Normal human epidermal fibroblasts suspended in a DMEM medium containing a 5% calf serum (FBS) were inoculated in a 96-well plate at a density of 2.0 x 10^4 cells per well. After 24 hours of the inoculation, the medium was exchanged with a 1% calf serum (FBS) -containing DMEM medium (each test solution) which contained trehalulose, isomaltulose, or reduced isomaltulose at the concentrations shown in Table 1 (i.e., each six types of concentrations including 0.000 w/v %). […] Also, 5% FBS-containing DMEM media were used as positive controls (P.C.). After culturing for 48 hours, the medium was exchanged with a 1% FBS-containing DMEM medium which contained 0.4 mg/mL of 3-(4,5-dimethylthiazol-2-yl)-2,5-diphenyltetrazolium bromide (MTT) and cultured for 2 hours. The medium was removed, and when 2-propanol was added, blue formazan generated was extracted. Absorbance of the extract at 550 nm was measured to obtain the amount of blue formazan.

[2] = test system: Normal human epidermal fibroblasts; assay: Evaluation of reducing effect of oxidative stress induced cell damage (UVB 25 mJ/cm^2, Neutral Red); type: cell-based
Description: (§1) When cells are irradiated with UVB, reactive oxygen species (such as a superoxide anion radical, hydrogen peroxide, and a hydroxyl radical) generate. The viability of cells obtained when the cells were irradiated with UVB was used as index to evaluate the reducing effect of the oxidative stress induced cell damage.
(§2) Normal human epidermal fibroblasts suspended in a KG2 medium were inoculated in a 96-well plate at a density of 2.0 x 10^4 cells per well. After 24 hours of the inoculation, the medium was exchanged with a KG2 medium (each test solution) which contained trehalulose or reduced isomaltulose at the concentrations shown in Table 2 (i.e., each six types of concentrations including 0.000 w/v %) and cultured for 24 hours. […] Also, groups that were not irradiated with UVB were provided as control groups. After culturing, the medium was exchanged with a KB2 medium containing 33 µg/mL of Neutral Red (NR) and was cultured for 2 hours. After culturing, the cells were washed with PBS, and NR captured within the cells was extracted with a 0.1M HCl solution containing 30% (v/v) ethanol. Absorbance of the extract at 550 nm was measured.
Except that the each test solution was changed to a KG2 medium which contained isomaltulose at the concentrations shown in Table 4 (i.e., six types of concentrations including 0.000 w/v %) and that the irradiation intensity of UVB was changed to 25 mJ/cm^2, the reducing effect of the oxidative stress induced cell damage was evaluated according to the same procedure as in Example 2.

tyrosinase = biological target: T1, tyrosinase (Homo sapiens, UniProt P14679); details: for Tyrosinase enzyme activity (µg melanin/µg protein/h): 0.5 mM L-DOPA, 37 °C, 2 hours, n=5; for tyrosinase-inhibiting effect: Student's t-test
T1 sequence (P14679 19-529): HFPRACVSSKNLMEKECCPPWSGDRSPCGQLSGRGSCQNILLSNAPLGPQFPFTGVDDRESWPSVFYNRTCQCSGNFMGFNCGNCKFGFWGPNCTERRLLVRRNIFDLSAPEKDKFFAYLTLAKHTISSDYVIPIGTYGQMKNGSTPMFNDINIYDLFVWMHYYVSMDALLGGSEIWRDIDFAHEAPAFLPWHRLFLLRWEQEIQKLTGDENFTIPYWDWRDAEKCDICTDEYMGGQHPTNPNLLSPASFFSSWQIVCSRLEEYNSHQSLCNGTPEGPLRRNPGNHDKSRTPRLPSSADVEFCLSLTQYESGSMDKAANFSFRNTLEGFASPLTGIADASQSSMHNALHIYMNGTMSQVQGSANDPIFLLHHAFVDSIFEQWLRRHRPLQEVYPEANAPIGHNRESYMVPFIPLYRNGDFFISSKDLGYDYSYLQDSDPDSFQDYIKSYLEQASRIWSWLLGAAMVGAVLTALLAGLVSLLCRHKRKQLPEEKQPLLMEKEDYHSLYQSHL

[3] = test system: Normal human epidermal fibroblasts; assay: Evaluation of reducing effect of oxidative stress induced cell damage (UVB 20 mJ/cm^2, Neutral Red); type: cell-based
Description: as §1, §2

Row | Tyrosinase enzyme activity (µg melanin/µg protein/h) (tyrosinase; 0.094 w/v%) | Tyrosinase enzyme activity (µg melanin/µg protein/h) (tyrosinase; 0.188 w/v%) | Tyrosinase enzyme activity (µg melanin/µg protein/h) (tyrosinase; 0.375 w/v%) | Tyrosinase enzyme activity (µg melanin/µg protein/h) (tyrosinase; 0.750 w/v%) | Tyrosinase enzyme activity (µg melanin/µg protein/h) (tyrosinase; 1.500 w/v%) | Tyrosinase enzyme activity (µg melanin/µg protein/h) (tyrosinase; 3.000 w/v%) | tyrosinase-inhibiting effect (tyrosinase) | Compound | activity at 0.313 % [1] | activity at 0.625 % [1] | activity at 1.25 % [1] | activity at 2.5 % [1] | activity at 5 % [1] | fibroblast-activating effect [1] | also measured
1 | 0.205 ± 0.004 µg melanin/µg protein/h | 0.208 ± 0.003 µg melanin/µg protein/h | 0.200 ± 0.006 µg melanin/µg protein/h | 0.196 ± 0.004 µg melanin/µg protein/h | 0.190 ± 0.003 µg melanin/µg protein/h | 0.184 ± 0.004 µg melanin/µg protein/h | significant tyrosinase-inhibiting effect | O=C(CO)[C@@H](O)[C@H](O)[C@H](O)CO[C@H]1O[C@H](CO)[C@@H](O)[C@H](O)[C@H]1O [Isomaltulose, 6-O-α-D-glucopyranosyl-D-fructose] | 101 ± 2% | 107 ± 4.4% | 111 ± 2.3% | 113 ± 2.1% | 112% | significant fibroblast-activating effect | viability at 0.013 % ([2]; Homo sapiens, Fibroblast, light or radiation study, 24 h, 0.013 w/v%, absorbance relative to UVB non-irradiated group = 100, n=4, read-out: Index (%)): 80 ± 1.8%; viability at 0.025 % ([2]; Homo sapiens, Fibroblast, light or radiation study, 24 h, 0.025 w/v%, absorbance relative to UVB non-irradiated group = 100, n=4, read-out: Index (%)): 83.7 ± 3.5%; viability at 0.05 % ([2]; Homo sapiens, Fibroblast, light or radiation study, 24 h, 0.050 w/v%, absorbance relative to UVB non-irradiated group = 100, n=4, read-out: Index (%)): 84.3 ± 1.1%; viability at 0.1 % ([2]; Homo sapiens, Fibroblast, light or radiation study, 24 h, 0.100 w/v%, absorbance relative to UVB non-irradiated group = 100, n=4, read-out: Index (%)): 86.2 ± 2.5%; viability at 0.2 % ([2]; Homo sapiens, Fibroblast, light or radiation study, 24 h, 0.200 w/v%, absorbance relative to UVB non-irradiated group = 100, n=4, read-out: Index (%)): 86.8 ± 2.9%; reducing effect of cell damage ([2]; Student's t-test): significant reducing effect of cell damage
2 | 0.251 ± 0.034 µg melanin/µg protein/h | 0.251 ± 0.051 µg melanin/µg protein/h | 0.244 ± 0.044 µg melanin/µg protein/h | 0.232 ± 0.028 µg melanin/µg protein/h | 0.197 ± 0.004 µg melanin/µg protein/h | 0.188 ± 0.004 µg melanin/µg protein/h | significant tyrosinase-inhibiting effect | O=C(CO[C@H]1O[C@H](CO)[C@@H](O)[C@H](O)[C@H]1O)[C@@H](O)[C@H](O)[C@H](O)CO [Trehalulose, 1-O-α-D-glucopyranosyl-D-fructose] | 101 ± 2.4% | 104 ± 2.5% | 106.9 ± 0.8% | 112 ± 1.4% | 114 ± 5.8% | significant fibroblast-activating effect | viability at 0.125 % ([3]; Homo sapiens, Fibroblast, light or radiation study, 24 h, 0.125 w/v%, absorbance relative to UVB non-irradiated group = 100, n=4, read-out: Index (%)): 80.7 ± 2.7%; viability at 0.25 % ([3]; Homo sapiens, Fibroblast, light or radiation study, 24 h, 0.250 w/v%, absorbance relative to UVB non-irradiated group = 100, n=4, read-out: Index (%)): 82 ± 4.1%; viability at 0.5 % ([3]; Homo sapiens, Fibroblast, light or radiation study, 24 h, 0.500 w/v%, absorbance relative to UVB non-irradiated group = 100, n=4, read-out: Index (%)): 86.5 ± 1.3%; viability at 1 % ([3]; Homo sapiens, Fibroblast, light or radiation study, 24 h, 1.000 w/v%, absorbance relative to UVB non-irradiated group = 100, n=4, read-out: Index (%)): 93 ± 0.4%; viability at 2 % ([3]; Homo sapiens, Fibroblast, light or radiation study, 24 h, 2.000 w/v%, absorbance relative to UVB non-irradiated group = 100, n=4, read-out: Index (%)): 94.8 ± 1%; reducing effect of cell damage ([3]; Student's t-test): significant reducing effect of cell damage
